# In patent publication US10421718B2, “EBNA1 inhibitors and their method of use” (priority 2013, dated 2019):
# Target: T1, His-EBNA1 (DNA binding domain of EBNA1, amino acids 459-607) (Epstein-Barr virus, UniProt P03211)
# T1 construct: made in house; host or cells: E. coli
# Assay: Inhibition of 5′-biotin-oPL4624 binding to His-EBNA1 using Alpha Screen technology
# Conditions: Alpha Screen Activity (IC50, inhibition of 5′-biotin-oPL4624 binding to His-EBNA1), 15 nM His-EBNA1, 0.2 nM bt-oPL4624, 2 hr room temperature
# Summary of the method: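 His-tagged EBNA1 DNA-binding domain (aa 459-607, E. coli-expressed) at 15 nM with 0.2 nM biotinylated self-complementary oligo, streptavidin donor and nickel acceptor beads, in 25 mM Tris pH 7.2, 160 mM NaCl, 1 mM MgCl2. Compound 3.2 nM-100 μM final; AlphaScreen read after 2 h at room temperature, one-site dose-response fit.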
# T1 sequence (P03211 459-607): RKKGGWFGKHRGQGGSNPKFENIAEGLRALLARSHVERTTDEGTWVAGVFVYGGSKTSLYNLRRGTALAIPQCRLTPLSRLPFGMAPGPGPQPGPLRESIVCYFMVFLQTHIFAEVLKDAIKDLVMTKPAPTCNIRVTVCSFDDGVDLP
compound,measurement,value
"CN(C)c1ccc(-c2c(C#Cc3ccccc3)cccc2C(=O)O)cn1 [Entry 127, 2-[6-(dimethylamino)pyridin-3-yl]-3-(2-phenylethynyl)benzoic acid]",IC50,10 to 100 µM
"O=C(O)c1cccc(C#Cc2ccccc2)c1-c1cccc(CO)c1 [Entry 128, 2-[3-(hydroxymethyl)phenyl]-3-(2-phenylethynyl)benzoic acid]",IC50,10 to 100 µM
"O=C(O)c1cccc(C#Cc2ccccc2)c1-c1ccc2cc[nH]c2c1 [Entry 129, 2-(1H-indol-6-yl)-3-(2-phenylethynyl)benzoic acid]",IC50,< 1 µM
"O=C(O)c1cccc(C#Cc2ccccc2)c1-c1ccc(CO)cc1 [Entry 130, 2-[4-(hydroxymethyl)phenyl]-3-(2-phenylethynyl)benzoic acid]",IC50,10 to 100 µM
"O=C(O)c1cccc(C#Cc2ccccc2)c1-c1ccc2occc2c1 [Entry 131, 2-(1-benzofuran-5-yl)-3-(2-phenylethynyl)benzoic acid]",IC50,10 to 100 µM
"O=C(O)c1cccc(C#Cc2ccccc2)c1-c1ccc2sccc2c1 [Entry 132, 2-(1-benzothiophen-5-yl)-3-(2-phenylethynyl)benzoic acid]",IC50,10 to 100 µM
"Cn1ccc2cc(-c3c(C#Cc4ccccc4)cccc3C(=O)O)ccc21 [Entry 133, 2-(1-methyl-1H-indol-5-yl)-3-(2-phenylethynyl)benzoic acid]",IC50,1 to 10 µM
"CS(=O)(=O)Nc1cccc(-c2c(C#Cc3ccccc3)cccc2C(=O)O)c1 [Entry 134, 2-(3-methanesulfonamidophenyl)-3-(2-phenylethynyl)benzoic acid]",IC50,1 to 10 µM
"O=C(O)c1cccc(C#Cc2ccccc2)c1-c1ccc2ccccc2c1 [Entry 135, 2-(naphthalen-2-yl)-3-(2-phenylethynyl)benzoic acid]",IC50,1 to 10 µM
"Cn1ccc2ccc(-c3c(C#Cc4ccccc4)cccc3C(=O)O)cc21 [Entry 136, 2-(1-methyl-1H-indol-6-yl)-3-(2-phenylethynyl)benzoic acid]",IC50,1 to 10 µM
"O=C(O)c1cccc(C#Cc2ccccc2)c1-c1ccccc1S(=O)(=O)NCCO [Entry 137, 2-{2-[(2-hydroxyethyl)sulfamoyl]phenyl}-3-(2-phenylethynyl)benzoic acid]",IC50,10 to 100 µM
"O=C(NC1CC1)c1ccc(-c2c(C#Cc3ccccc3)cccc2C(=O)O)cc1 [Entry 138, 2-[4-(cyclopropylcarbamoyl)phenyl]-3-(2-phenylethynyl)benzoic acid]",IC50,10 to 100 µM
"Cn1ncc2ccc(-c3c(C#Cc4ccccc4)cccc3C(=O)O)cc21 [Entry 139, 2-(1-methyl-1H-indazol-6-yl)-3-(2-phenylethynyl)benzoic acid]",IC50,10 to 100 µM
"O=C(O)c1cccc(C#Cc2cccc(O)c2)c1-c1cnc2ccccc2c1 [Entry 140, 3-((3-hydroxyphenyl)ethynyl)-2-(quinolin-3-yl)benzoic acid]",IC50,1 to 10 µM
"O=C(O)c1cccc(C#CCCCO)c1-c1cnc2ccccc2c1 [Entry 141, 3-(5-hydroxypent-1-ynyl)-2-(quinolin-3-yl)benzoic acid]",IC50,10 to 100 µM
"COc1ccc(C#Cc2cccc(C(=O)O)c2-c2cnc3ccccc3c2)cc1 [Entry 142, 3-((4-methoxyphenyl)ethynyl)-2-(quinolin-3-yl)benzoic acid]",IC50,10 to 100 µM
"O=C(O)c1cccc(C#Cc2cnc3cnccn23)c1-c1cnc2ccccc2c1 [Entry 143, 3-(imidazo[1,2-a]pyrazin-3-ylethynyl)-2-(quinolin-3-yl)benzoic acid]",IC50,1 to 10 µM
"COC/C=C/c1cccc(C(=O)O)c1-n1cccc1 [Entry 144, 3-[(1E)-3-methoxyprop-1-en-1-yl]-2-(1H-pyrrol-1-yl)benzoic acid]",IC50,1 to 10 µM
"O=C(O)c1cccc(/C=C/c2ccccc2)c1-n1cccc1 [Entry 145, 3-[(E)-2-phenylethenyl]-2-(1H-pyrrol-1-yl)benzoic acid]",IC50,10 to 100 µM
"O=C(O)c1cccc(/C=C/c2ccc(F)cc2)c1-n1cccc1 [Entry 146, 3-[(E)-2-(4-fluorophenyl)ethenyl]-2-(1H-pyrrol-1-yl)benzoic acid]",IC50,10 to 100 µM
"O=C(O)c1cccc(CCc2ccccc2)c1-n1cccc1 [Entry 147, 3-(2-phenylethyl)-2-(1H-pyrrol-1-yl)benzoic acid]",IC50,10 to 100 µM
"O=C(O)c1cccc(CCc2ccccc2)c1N1CCCC1 [Entry 148, 3-(2-phenylethyl)-2-(pyrrolidin-1-yl)benzoic acid]",IC50,10 to 100 µM
"O=C(O)c1cccc(CCc2ccc(F)cc2)c1-n1cccc1 [Entry 149, 3-[2-(4-fluorophenyl)ethyl]-2-(1H-pyrrol-1-yl)benzoic acid]",IC50,10 to 100 µM
"O=C(O)c1cccc(C#Cc2ccccc2)c1-c1ccc2nc[nH]c2c1 [Entry 150, 2-(1H-1,3-benzodiazol-6-yl)-3-(2-phenylethynyl)benzoic acid]",IC50,10 to 100 µM
"NS(=O)(=O)c1cccc(C#Cc2ccccc2)c1-n1cccc1 [Entry 152, 3-Phenylethynyl-2-pyrrol-1-yl-benzenesulfonamide]",IC50,1 to 10 µM
"CC(=O)NS(=O)(=O)c1cccc(C#Cc2ccccc2)c1-n1cccc1 [Entry 153, N-Acetyl-3-phenylethynyl-2-pyrrol-1-yl-benzenesulfonamide]",IC50,10 to 100 µM
"Cc1noc(C)c1-c1c(C#Cc2ccccc2)cccc1C(=O)O [Entry 154, 2-(dimethyl-1,2-oxazol-4-yl)-3-(2-phenylethynyl)benzoic acid]",IC50,1 to 10 µM
"O=C(O)c1cccc(C#Cc2ccccc2)c1OCc1ccccc1 [Entry 155, 2-(benzyloxy)-3-(2-phenylethynyl)benzoic acid]",IC50,10 to 100 µM
"COC(=O)c1c[nH]c2cc(-c3c(C#Cc4ccccc4)cccc3C(=O)O)ccc12 [Entry 156, 2-[3-(methoxycarbonyl)-1H-indol-6-yl]-3-(2-phenylethynyl)benzoic acid]",IC50,1 to 10 µM
"O=C(O)c1cccc(C#CCNCc2ccccc2)c1-c1ccccc1 [Entry 157, 3-[3-(benzylamino)prop-1-yn-1-yl]-2-phenylbenzoic acid]",IC50,10 to 100 µM
"O=C(O)c1cccc(C#CCNCCCn2ccnc2)c1-c1ccccc1 [Entry 158, 3-(3-{[3-(1H-imidazol-1-yl)propyl]amino}prop-1-yn-1-yl)-2-phenylbenzoic acid]",IC50,10 to 100 µM
"O=C(O)c1cccc(C#CCN2CCN(c3ccccc3)CC2)c1-c1ccccc1 [Entry 159, 2-phenyl-3-[3-(4-phenylpiperazin-1-yl)prop-1-yn-1-yl]benzoic acid]",IC50,10 to 100 µM
"O=C(O)c1cccc(C#CCN2CCCC2)c1-c1ccccc1 [Entry 160, 2-phenyl-3-[3-(pyrrolidin-1-yl)prop-1-yn-1-yl]benzoic acid]",IC50,10 to 100 µM
"O=C(O)c1cccc(C#CCO)c1-c1ccccc1 [Entry 161, 3-(3-hydroxyprop-1-yn-1-yl)-2-phenylbenzoic acid]",IC50,100 to 1000 µM
"NCc1cccc(C#Cc2cccc(C(=O)O)c2-n2cccc2)c1 [Entry 162, 3-{2-[3-(Aminomethyl)phenyl]ethynyl}-2-(1H-pyrrol-1-yl)benzoic acid]",IC50,1 to 10 µM
"O=C(O)c1cccc(C#Cc2cccc(CNS(=O)(=O)c3cc(F)cc(F)c3)c2)c1-n1cccc1 [Entry 163, 3-{2-[3-(3,5-difluorobenzenesulfonamidomethyl)phenyl]ethynyl}-2-(1H-pyrrol-1-yl)benzoic acid]",IC50,1 to 10 µM
Cc1ncc(S(=O)(=O)NCc2ccc(C#Cc3cccc(C(=O)O)c3-n3cccc3)cc2)n1C [Entry 164],IC50,1 to 10 µM
"O=C(O)c1cccc(C#Cc2cccc(CNS(=O)(=O)C3CC3)c2)c1-n1cccc1 [Entry 165, 3-{2-[3-(cyclopropanesulfonamidomethyl)phenyl]ethynyl}-2-(1H-pyrrol-1-yl)benzoic acid]",IC50,< 1 µM
"COc1cccc(-c2c(C#Cc3c[nH]c4ncccc34)cccc2C(=O)O)c1 [Entry 166, 2-(3-methoxyphenyl)-3-(2-{1H-pyrrolo[2,3-b]pyridin-3-yl}ethynyl)benzoic acid]",IC50,10 to 100 µM
"Cn1ncc2ccc(-c3c(C#Cc4c[nH]c5ncccc45)cccc3C(=O)O)cc21 [Entry 167, 2-(1-methyl-1H-indazol-6-yl)-3-(2-{1H-pyrrolo[2,3-b]pyridin-3-yl}ethynyl)benzoic acid]",IC50,10 to 100 µM
"Cc1nc2cc(-c3c(C#Cc4c[nH]c5ncccc45)cccc3C(=O)O)ccc2s1 [Entry 168, 2-(2-methyl-1,3-benzothiazol-5-yl)-3-(2-{1H-pyrrolo[2,3-b]pyridin-3-yl}ethynyl)benzoic acid]",IC50,10 to 100 µM
Cn1ncc2ccc(-c3c(C#Cc4cscn4)cccc3C(=O)O)cc21 [Entry 170],IC50,1 to 10 µM
Cn1ccc2cc(-c3c(C#Cc4cscn4)cccc3C(=O)O)ccc21 [Entry 171],IC50,1 to 10 µM
O=C(O)c1cccc(C#Cc2cscn2)c1-c1ccncc1 [Entry 172],IC50,10 to 100 µM
Cc1nc2cc(-c3c(C#Cc4cscn4)cccc3C(=O)O)ccc2s1 [Entry 173],IC50,10 to 100 µM
"O=C(O)c1cccc(C#Cc2ccncc2)c1-c1c[nH]c2ccccc12 [Entry 174, 2-(1H-indol-3-yl)-3-[2-(pyridin-4-yl)ethynyl]benzoic acid]",IC50,1 to 10 µM
"CN(C)c1ccc(-c2c(C#Cc3ccncc3)cccc2C(=O)O)cc1 [Entry 175, 2-[4-(dimethylamino)phenyl]-3-[2-(pyridin-4-yl)ethynyl]benzoic acid]",IC50,10 to 100 µM
"CN1CCOc2cc(-c3c(C#Cc4ccncc4)cccc3C(=O)O)ccc21 [Entry 176, 2-(4-methyl-3,4-dihydro-2H-1,4-benzoxazin-7-yl)-3-[2-(pyridin-4-yl)ethynyl]benzoic acid]",IC50,10 to 100 µM
"O=C(O)c1cccc(C#Cc2ccncc2)c1-c1ccccc1 [Entry 177, 2-phenyl-3-[2-(pyridin-4-yl)ethynyl]benzoic acid]",IC50,100 to 1000 µM
"O=C(O)c1cccc(C#Cc2cc(C(=O)O)c3cc[nH]c3c2)c1 [Entry 178, 6-(3-carboxy-phenylethynyl)-1H-indole-4-carboxylic acid]",IC50,1 to 10 µM
